Assay results taken from US8435984B2, “Tertiary amine substituted peptides useful as inhibitors of HCV replication” (Achillion Pharmaceuticals, Inc., priority 2007, dated 2013).

Each molecule was assayed on HCV replicon (assay: HCV replicon replication assay (NPT ELISA) in Huh-7 replicon-containing cells). Details: Hepatitis C virus, 72 h; inhibition of HCV replicon replication, Huh-7 HCV replicon-containing cells, three days.
Assay type: cell-based, Hepatitis C virus
Description: Compounds claimed herein are tested for the ability to inhibit viral replication of the Hepatitis C replicon in cultured cells in which the HCV replicon construct has been incorporated. The HCV replicon system was described by Bartenschlager, et. al (Science, 285, pp. 110-113 (1999)). The replicon system is predictive of in vivo anti-HCV activity; compounds that are active in humans uniformly evidence activity in the replicon assay.
In this assay HCV replicon containing cells are treated with different concentrations of the test compound to ascertain the ability of the test compound to suppress replication of the HCV replicon. As a positive control, HCV replicon-containing cells are treated with different concentrations of interferon alpha, a known inhibitor of HCV replication. The replicon assay system includes Neomycin Phosphotransferase (NPT) as a component of the replicon itself in order to detect the transcription of replicon gene products in the host cell. Cells in which the HCV replicon is actively replicating have high levels of NPT; the level of NPT is proportional to HCV replication. […] The NPT level of each sample is measured using a captured ELISA.
The HCV replicon contains, 5′-3′, the HCV-IRES, the neomycin phosphotransferase (neo) gene, the IRES of encephalomyocarditis virus, which directs translation of HCV sequences NS3 to NS5B, and the 3′-NTR. The sequence of the HCV replicon has been deposited in GenBank (Accession no. AJ242652).
The replicon is transfected into Huh-7 cells using standard methods such as electroporation.
HCV replicon-containing cells are rinsed with once PBS once; 2 mls of trypsin are then added. Cells are incubated at 37° C. in a 5% CO2 incubator for 3-5 minutes. 10 mls of complete medium is added to stop the reaction. Cells are blown gently, put into a 15 ml tube, and spun at 1200 rpm for four minutes. The trypsin/medium solution is removed and 5 mls of medium (500 ml DMEM (high glucose)) from BRL catalog #12430-054; 50 mls 10% FBS, 5% Geneticin G418 (50 mg/ml, BRL catalog #10131-035), 5 ml MEM non-essential amino acids (100×BRL #11140-050) and 5 ml pen-strep (BRL #15140-148) is added. The cells and media are mixed carefully
Cells are plated with screening medium (500 ml DMEM (BRL #21063-029), 50 ml FBS (BRL #10082-147) and 5 ml MEM non-essential amino acid (BRL #11140-050) at 6000-7500 cells/100 μl/well of 96 well plate (6-7.5×10^5 cells/10 ml/plate). Plates are placed into 37° C. 5% CO2 incubator overnight. 6D. Assay
The following morning, drugs (test compounds or interferon alpha) are diluted in 96 well U bottom plates with media or DMSO/media, depending on the final concentration chosen for screening. Generally for 6 concentrations of each test compounds ranging from 10 micromolar to 0.03 micromolar are applied. 100 μl of the test compound dilution is placed in wells of the 96 well plate containing the HCV replicon cells. Media without drug is added to some wells as a negative controls. DMSO is known to affect cell growth. Therefore, if drugs diluted in DMSO are used, all wells, including negative control (media only) and positive control (interferon alpha) wells, must contain the same concentration of DMSO, for single dose screening. The plates are incubated at 37° C. in a humidified 5% CO2 environment for three days.
On day four, the NTPII assay is quantitated. The medium is poured from the plates and the plates are washed once in 200 μl of PBS. The PBS is then decanted and the plates tapped in a paper towel to remove any remaining PBS. Cells are fixed in situ with 100 id/well of pre-cooled (−20° C.) methanol:acetone (1:1) and the plates are placed at −20° C. for 30 minutes.
The fixing solution is poured from the plates and the plates allowed to air-dry completely (approximately one hour). The appearance of the dried cell layer is recorded and the density of the cells in the toxic wells is scored with the naked eye. […]
C=C[C@H]1C[C@@]1(NC(=O)[C@@H]1C[C@@H](Oc2cc(-c3ccccc3)nc3cc(OC)ccc23)CN1C(=O)[C@H](c1ccccc1)N1CCCCC1)C(=O)NS(=O)(=O)C1CC1 [Compound 65, (2S,4R)-N-((1S,2R)-1-(cyclopropylsulfonylcarbamoyl)-2-vinylcyclopropyl)-4-(7-methoxy-2-phenylquinolin-4-yloxy)-1-((S)-2-phenyl-2-(piperidin-1-yl)acetyl)pyrrolidine-2-carboxamide] was tested, and the EC50 was under 100 µM.
For C=C[C@@H]1C[C@]1(NC(=O)[C@@H]1C[C@@H](Oc2cc(-c3ccccc3)nc3cc(OC)ccc23)CN1C(=O)[C@H](c1ccccc1)N1CCCCC1)C(=O)NS(=O)(=O)C1CC1 [Compound 66, (2S,4R)-N-((1R,2S)-1-(cyclopropylsulfonylcarbamoyl)-2-vinylcyclopropyl)-4-(7-methoxy-2-phenylquinolin-4-yloxy)-1-((S)-2-phenyl-2-(piperidin-1-yl)acetyl)pyrrolidine-2-carboxamide], the EC50 was under 100 µM.
For C=CC1CC1(NC(=O)[C@@H]1C[C@@H](Oc2cc(-c3ccccc3)nc3cc(OC)ccc23)CN1C(=O)[C@H](C)N1CCCCC1)C(=O)NS(=O)(=O)C1CC1 (stereo partly drawn) [Compound 67, (2S,4R)-N-(1-(cyclopropylsulfonylcarbamoyl)-2-vinylcyclopropyl)-4-(7-methoxy-2-phenylquinolin-4-yloxy)-1-((S)-2-(piperidin-1-yl)propanoyl)pyrrolidine-2-carboxamide], the EC50 was under 100 µM.
With C=CC1CC1(NC(=O)[C@@H]1C[C@@H](Oc2cc(-c3ccccc3)nc3cc(OC)ccc23)CN1C(=O)[C@H](C(C)C)N1CCCCC1)C(=O)NS(=O)(=O)C1CC1 (stereo partly drawn) [Compound 68, (2S,4R)-N-(1-(cyclopropylsulfonylcarbamoyl)-2-vinylcyclopropyl)-4-(7-methoxy-2-phenylquinolin-4-yloxy)-1-((S)-3-methyl-2-(piperidin-1-yl)butanoyl)pyrrolidine-2-carboxamide] the EC50 was under 100 µM.
C=CC1CC1(NC(=O)[C@@H]1C[C@@H](Oc2cc(-c3ccccc3)nc3cc(OC)ccc23)CN1C(=O)[C@H](CC(C)C)N1CCCCC1)C(=O)NS(=O)(=O)C1CC1 (stereo partly drawn) [Compound 69, (2S,4R)-N-(1-(cyclopropylsulfonylcarbamoyl)-2-vinylcyclopropyl)-4-(7-methoxy-2-phenylquinolin-4-yloxy)-1-((S)-4-methyl-2-(piperidin-1-yl)pentanoyl)pyrrolidine-2-carboxamide] gave an EC50 of under 100 µM.
